“And” between values parts separate entries of the source, which are not always exact repeats. Identical values can stand only once. Like-named read-outs stand apart in the source and are kept apart here. Where a SMILES comes first, the peptide text is derived from it.
How the values were obtained:
[1] = test system: PT immobilized on a CM5 chip; assay type: binding, Bordetella pertussis
PT [2] = details: phage display, Bogdan, et al.; cited from earlier work
[3] = test system: PT immobilized on Streptavidin beads
purified Pertussis Toxin = assay: binding of purified PT to peptides immobilized on streptavidin sepharose; set-up: species or system Bordetella pertussis; details: ~200 pmol peptide on streptavidin sepharose, 100 pmol purified PT, gel, silver staining
PT [4] = assay: estimation of peptides binding capacity (fraction of binding active peptide); set-up: species or system Bordetella pertussis; details: 20 pmol sepharose-immobilized peptide, 100 pmol PT (500 nM); 1:1 binding assumed
Protocol: For estimation of peptides binding capacity 20 pmol of sepharose-immobilized peptides were incubated with an excess of 100 pmol PT in a volume of 200 μl HEPES buffer (corresponds to 500 nM PT). After washing, the fraction of peptide-streptavidin sepharose bound PT was quantified by gel analysis. This allows directly to calculate the fraction of binding active peptide under the applied conditions (assuming the PT/peptide binding ratio is 1:1). Under the assumption that a concentration of 500 nM PT is high enough to reach Bmax for all peptides. The values presented therein are estimations for the expectable binding capacities of the peptides. An exact evaluation of binding capacity (Bmax) and dissociation constant (KD) of the most suitable binder may also be performed.

PT [5] = assay: stability of PT/peptide complexes, BIAcore 2000; assay type: binding, Bordetella pertussis; details: for pH range stability of the complex (stable): PT/peptide complex, instable at pH 2.5 or 10.5
Protocol: The stability of PT/peptide complexes were investigated using the BIAcore 2000 instrument under different pH and salt conditions that were shown before not to interfere with the PT hexamer stability. 500-1000 RU of the synthetic peptides were immobilized on BIAcore streptavidin chips. To allow binding of PT to the immobilized peptides, 20 nM purified PT in HEPES buffer was injected for 1 minute. After equilibration with HBS/EP running buffer (0.01 M HEPES pH 7.4, 0.15 M NaCl 3 mM EDTA 0.005% polysorbate 20 (v/v)) the PT/peptide complexes were washed by injection of • (a) 100 mM carbonate buffer at pH 10.5 and 9.5 • (b) 10 mM acetate buffer at pH 5.5, 5.0, 4.5, and 4.0 • (c) 10 mM glycine buffer at pH 3.0 and 2.5 • (d) 0.5, 1.0, 1.5, 2.0 M NaCl in 10 mM acetate buffer, pH 6.0, • (e) 0.5, 1.0, 1.5, 2.0 M NaCl in 50 mM Tris/HCl buffer, pH 8.5, • (f) 0.5, 1.0, 1.5, 2.0 M KCl in 10 mM acetate buffer, pH 6.0, • (g) 0.5, 1.0, 1.5, 2.0 M KCl in 50 mM Tris/HCl buffer, pH 8.5, • (h) 0.5, 1.0, 1.5, 2.0 M NaCl in 10 mM acetate buffer, pH 6.0, • (i) 0.5, 1.0, 1.5, 2.0 M NaCl in 50 mM Tris/HCl buffer, pH 8.5.
After the end of each buffer injection, the chip was equilibrated with HBS/EP running buffer. The loss of PT hexamer on the chip under the applied buffer conditions (difference of measured RU signal before and after buffer injection) reflects the PT/peptide complex stability.

PT [6] = assay type: binding, Bordetella pertussis; details: input of 400 pmol peptide to 1 μl streptavidin sepharose
PT [7] = assay: reutilization of peptide sepharose for repeated PT binding and elution; set-up: species or system Bordetella pertussis; details: 4 cycles of PT binding, carbonate pH 10.5 elution, 10 mM HCl regeneration
Protocol: For binding of PT each peptide streptavidin sepharose was incubated with 400 μl sample B (adjusted to pH 7.0-7.5 by addition of HC1) for 1 hour at RT and washed 4 times with 50 mM Tris/HC1, pH 7.5 (each 200 μl). PT was eluted by 4 consecutive elutions with 100 mM Carbonate buffer at pH 10.5 (each 20 μl). Subsequently the column matrices were regenerated by three washes with 10 mM HC1 (l×20 μl, 2×100 μl) and afterwards neutralized by two washes with 200 μl 50 mM Tris/HC1, pH 7.5. This binding, elution and regeneration procedure was applied to the peptide sepharose for three additional times. […] (FIG. 25). • 5. Large-scale FPLC-Purification of PT

PT [8] = assay type: binding, Bordetella pertussis
[9] = test system: chip immobilized biotinylated PT; details: BIAcore streptavidin chip
Excerpt: The quality of the biotinylation reaction was controlled by analysis of the interaction of biotinylated PT with a BIAcore streptavidin chip using BIAcore instrument (BIAcore 2000).

Sequence of purified Pertussis Toxin (P04977 35-269 limits assumed): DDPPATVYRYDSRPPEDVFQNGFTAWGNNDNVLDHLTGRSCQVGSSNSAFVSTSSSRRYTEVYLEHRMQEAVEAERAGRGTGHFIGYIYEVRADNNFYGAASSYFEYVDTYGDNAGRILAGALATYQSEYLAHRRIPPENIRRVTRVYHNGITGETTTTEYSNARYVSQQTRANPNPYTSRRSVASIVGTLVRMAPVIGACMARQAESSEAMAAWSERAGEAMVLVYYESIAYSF
Sequence of purified Pertussis Toxin (P04978 28-226 limits assumed, further chain): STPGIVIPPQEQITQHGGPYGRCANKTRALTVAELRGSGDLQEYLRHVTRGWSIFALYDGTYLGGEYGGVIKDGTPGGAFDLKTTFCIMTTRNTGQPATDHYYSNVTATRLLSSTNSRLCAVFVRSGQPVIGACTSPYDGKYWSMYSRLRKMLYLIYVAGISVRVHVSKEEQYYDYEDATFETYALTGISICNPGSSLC
Sequence of purified Pertussis Toxin (P04979 29-227 limits assumed, further chain): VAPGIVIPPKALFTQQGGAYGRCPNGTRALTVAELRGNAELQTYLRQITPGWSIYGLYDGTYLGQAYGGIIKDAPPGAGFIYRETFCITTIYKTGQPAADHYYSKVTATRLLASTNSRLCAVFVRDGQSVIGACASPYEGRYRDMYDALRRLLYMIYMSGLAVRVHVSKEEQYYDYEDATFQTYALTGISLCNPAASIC
Sequence of purified Pertussis Toxin (P0A3R5 43-152 limits assumed, further chain): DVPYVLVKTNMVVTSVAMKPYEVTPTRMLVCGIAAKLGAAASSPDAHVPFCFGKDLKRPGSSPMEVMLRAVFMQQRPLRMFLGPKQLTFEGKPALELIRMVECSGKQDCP
Sequence of purified Pertussis Toxin (P04981 35-133 limits assumed, further chain): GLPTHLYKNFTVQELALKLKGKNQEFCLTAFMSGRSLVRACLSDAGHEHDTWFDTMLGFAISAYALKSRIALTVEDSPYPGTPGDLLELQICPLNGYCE
Sequence of PT (P04977 35-269 limits assumed): as the sequence (P04977 35-269 limits assumed) above
Sequence of PT (P04978 28-226 limits assumed, further chain): as the sequence (P04978 28-226 limits assumed, further chain) above
Sequence of PT (P04979 29-227 limits assumed, further chain): as the sequence (P04979 29-227 limits assumed, further chain) above
Sequence of PT (P0A3R5 43-152 limits assumed, further chain): as the sequence (P0A3R5 43-152 limits assumed, further chain) above
Sequence of PT (P04981 35-133 limits assumed, further chain): as the sequence (P04981 35-133 limits assumed, further chain) above
Sequence of PT immobilized on Streptavidin beads (P04977 35-269 limits assumed): as the sequence (P04977 35-269 limits assumed) above
Sequence of PT immobilized on Streptavidin beads (P04978 28-226 limits assumed, further chain): as the sequence (P04978 28-226 limits assumed, further chain) above
Sequence of PT immobilized on Streptavidin beads (P04979 29-227 limits assumed, further chain): as the sequence (P04979 29-227 limits assumed, further chain) above
Sequence of PT immobilized on Streptavidin beads (P0A3R5 43-152 limits assumed, further chain): as the sequence (P0A3R5 43-152 limits assumed, further chain) above
Sequence of PT immobilized on Streptavidin beads (P04981 35-133 limits assumed, further chain): as the sequence (P04981 35-133 limits assumed, further chain) above
Sequence of chip immobilized biotinylated PT (P04977 35-269 limits assumed): as the sequence (P04977 35-269 limits assumed) above
Sequence of chip immobilized biotinylated PT (P04978 28-226 limits assumed, further chain): as the sequence (P04978 28-226 limits assumed, further chain) above
Sequence of chip immobilized biotinylated PT (P04979 29-227 limits assumed, further chain): as the sequence (P04979 29-227 limits assumed, further chain) above
Sequence of chip immobilized biotinylated PT (P0A3R5 43-152 limits assumed, further chain): as the sequence (P0A3R5 43-152 limits assumed, further chain) above
Sequence of chip immobilized biotinylated PT (P04981 35-133 limits assumed, further chain): as the sequence (P04981 35-133 limits assumed, further chain) above
Sequence of PT immobilized on a CM5 chip (P04977 35-269 limits assumed): as the sequence (P04977 35-269 limits assumed) above
Sequence of PT immobilized on a CM5 chip (P04978 28-226 limits assumed, further chain): as the sequence (P04978 28-226 limits assumed, further chain) above
Sequence of PT immobilized on a CM5 chip (P04979 29-227 limits assumed, further chain): as the sequence (P04979 29-227 limits assumed, further chain) above
Sequence of PT immobilized on a CM5 chip (P0A3R5 43-152 limits assumed, further chain): as the sequence (P0A3R5 43-152 limits assumed, further chain) above
Sequence of PT immobilized on a CM5 chip (P04981 35-133 limits assumed, further chain): as the sequence (P04981 35-133 limits assumed, further chain) above

Molecule: CC[C@H](C)[C@H](NC(=O)[C@H](CO)NC(=O)[C@H](CC(C)C)NC(=O)[C@H](CCCNC(=N)N)NC(=O)[C@H](CO)NC(=O)[C@H](CCCNC(=N)N)NC(=O)[C@H](Cc1c[nH]cn1)NC(=O)[C@@H]1CCCN1C(=O)[C@H](CCCNC(=N)N)NC(=O)[C@H](CC(=O)O)NC(=O)[C@H](Cc1c[nH]c2ccccc12)NC(=O)CNC(=O)[C@@H](NC(=O)[C@H](CC(=O)O)NC(=O)[C@H](Cc1ccc(O)cc1)NC(=O)[C@H](Cc1c[nH]c2ccccc12)NC(=O)[C@@H](NC(=O)[C@H](CCC(=O)O)NC(=O)[C@H](CC(N)=O)NC(=O)[C@H](CC(C)C)NC(=O)[C@@H]1CCCN1C(=O)[C@@H](NC(=O)[C@@H](NC(=O)[C@H](CC(N)=O)NC(=O)[C@H](CO)NC(=O)[C@H](CCCNC(=N)N)NC(=O)COCCOCCNC(=O)CCCC[C@@H]1SC[C@@H]2NC(=O)N[C@@H]21)C(C)C)[C@@H](C)CC)C(C)C)[C@@H](C)O)C(=O)N[C@@H](CC(=O)O)C(=O)N[C@@H](CC(=O)O)C(=O)N[C@@H](CC(=O)O)C(=O)N[C@@H](C)C(=O)O [pp26 9n] (HELM PEPTIDE1{[O=C1N[C@H]2[C@H](CS[C@H]2CCCCC(=O)[*:2])N1].[O=C(COCCOCCN[*:1])[*:2]].R.S.N.V.I.P.L.N.E.V.W.Y.D.T.G.W.D.R.P.H.R.S.R.L.S.I.D.D.D.A}$$$$V2.0)
- Association rate constant kon [1]: 130000 M⁻¹ s⁻¹
- Dissociation rate constant koff [1]: 10^−3 s^−1

Molecule: DGSFSGF [3G2]
- PT-binding capacity (PT [2]): PT-binding capacity

Molecule: MGRGSHHHHHHARSNVIPLNEVWYDTGWDRPHRSRLSIDDDANAPKASAI [PP26 variant 9]
- target binding to PT in the presence of AP process fluids [3]: not reduced

Molecule: MGRGSHHHHHHARSSHCRHRNCHTITRGNMRIETPNNIRKDANAPKASAI [PP26 variant 5]
- target binding to PT in the presence of AP process fluids [3]: not reduced

Molecule: MGRGSHHHHHHARSTMNTNRMDIQRLMTNHVKRDSSPGSIDANAPKASAI [PP26 variant 6]
- target binding to PT in the presence of AP process fluids [3]: not reduced

Molecule: MHHHHHHSGSSSGSGCVKKDELCARWDLVCCEPLECIYTSELYATCGSGSSGSS [gurmarin variant 9]
- target binding to PT in the presence of AP process fluids [3]: not influenced

Molecule: MHHHHHHSGSSSGSGCVKKDELCELAVDECCEPLECFQMGHGFKRCGSGSSGSS [gurmarin variant 10]
- target binding to PT in the presence of AP process fluids [3]: not influenced

Molecule: MHHHHHHSGSSSGSGCVKKDELCELAVDECCEPLECTKGDLGFRKCGSGSSGSS [gurmarin variant 19]
- target binding to PT in the presence of AP process fluids [3]: not influenced

Molecule: NGSFSGC [3G8]
- PT-binding capacity (PT [2]): PT-binding capacity

Molecule: NGSFSGF [3G5]
- PT-binding capacity (PT [2]): PT-binding capacity

Molecule: Pertussis toxin [PT]
- pH range over which Pertussis toxin hexamer is stable (BIAcore, buffers pH 2-10.5): 2.5-10.5 pH
- PT hexamer stability (%) (pH 2): 93%
- PT hexamer stability (%) (pH 2.5): 98%
- PT hexamer stability (%) (pH 3): 100%
- PT hexamer stability (%) (pH 4): 100%
- PT hexamer stability (%) (pH 4.5): 100%
- PT hexamer stability (%) (pH 5): 100%
- PT hexamer stability (%) (pH 5.5): 100%
- PT hexamer stability (%) (pH 8.5): 100%
- PT hexamer stability (%) (pH 9.6): 98%
- PT hexamer stability (%) (pH 10.5): 95%

Molecule: RSSHCRHRNCHTITRGNMRIETPNNIRKDA [pp26 5n]
- binding to purified PT (purified Pertussis Toxin): clear binding
- Fraction of binding active peptide (PT [4]): > 5%

Molecule: RSSHCRHRNCHTITRGNMRIETPNNIRKDAK [pp26 5c]
- binding to purified PT (purified Pertussis Toxin): clear binding

Molecule: RSWRDTRKLHMRHYFPLAIDSYWDHTLRDA [pp26 15n]
- pH range stability of the complex (stable) (PT [5]): 3-9 pH
- KCl stability of the complex (stable) (PT [5]; pH 6): 2 M
- MgCl2 stability of the complex (stable) (PT [5]; pH 6): to 2M
- NaCl stability of the complex (stable) (PT [5]; pH 6): 2 M
- KCl stability of the complex (stable) (PT [5]; pH 8.5): 2 M
- MgCl2 stability of the complex: complete elution (PT [5]; pH 8.5): not
- NaCl stability of the complex (stable) (PT [5]; pH 8.5): 2 M
- MgCl2 stability of the complex: Elution / destabilized (PT [5]; pH 8.5 (50 mM Tris/HCl)): Elution ≧1.5, M
- binding to purified PT (purified Pertussis Toxin): clear binding
- Fraction of binding active peptide (PT [4]): >12.5%

Molecule: SGCVKKDELCARWDLVCCEPLECIYTSELYATCG [gurmarin 9n]
- NaCl in buffer that interferes with PT/peptide complex stability (PT [5]): 2.5 M
- pH range stability of the complex (stable) (PT [5]): 3-9 pH
- KCl stability of the complex (stable) (PT [5]; pH 8.5): strong sensitive to salt
- NaCl stability of the complex (stable) (PT [5]; pH 8.5): strong sensitive to salt
- binding to purified PT (purified Pertussis Toxin): clear binding
- Fraction of binding active peptide (PT [4]): >12.5%

Molecule: SGCVKKDELCELAIDECCEPLECTKGDLGFRKCG [gurmarin 19n]
- binding to purified PT (purified Pertussis Toxin): clear binding

Molecule: SGCVKKDELCELAVDECCEPLECFQMGHGFKRCG [gurmarin 10n]
- binding to purified PT (purified Pertussis Toxin): clear binding
- Fraction of binding active peptide (PT [4]): > 5%

Molecule: SGCVKKDELCSQSVPMCCEPLECKWFNENYGICGS [gurmarin 15n]
- Amount of elutable peptide (effectively bound fraction of peptide) (PT [6]): 50 pmol
- pH range stability of the complex (stable) (PT [5]): 3-9 pH
- KCl stability of the complex (stable) (PT [5]; pH 6): sensitive to salt
- MgCl2 stability of the complex: Elution (PT [5]; pH 6): Elution ≧1M,
- MgCl2 stability of the complex: complete elution (PT [5]; pH 6): elution ≧2M
- NaCl stability of the complex (stable) (PT [5]; pH 6): sensitive to salt
- KCl stability of the complex (stable) (PT [5]; pH 8.5): sensitive to salt
- MgCl2 stability of the complex: complete elution (PT [5]; pH 8.5): elution ≧2M
- NaCl stability of the complex (stable) (PT [5]; pH 8.5): sensitive to salt
- reusability of peptide loaded sepharose (PT [7]): may be re-utilized
- binding to purified PT (purified Pertussis Toxin): clear binding

Molecule: asialofetuin
- Amount of PT bound (PT [8]): ~8 pmol and ~16 pmol
- binding signal to immobilized PT [9]: ~400 RU
- unspecific binding to the control cell [9]: ~100 RU
